Structures can show the parent of a compound that is named as a salt.
Molecular target: T1, Nav1.7 (or SCN9A) channel (Homo sapiens, UniProt Q15858)
T1 construct: expressed in transfected cells
Test: Nav1.7 (hSCN9A) electrophysiology assay, PatchXpress platform
Format: cell-based
Details: estimated IC50 from single point electrophysiology data, HEK cells stably expressing hSCN9A, held at V1/2 of inactivation, read-out: Nav1.7 EIC50
Experimental: The ability of the compounds of formula (I) to block the Nav1.7 (or SCN9A) channel were measured using the assay described below.
Human Embryonic Kidney (HEK) cells were transfected with an hSCN9A construct using lipofectamine reagent (Invitrogen), using standard techniques. Cells stably expressing the hSCN9A constructs were identified by their resistance to G-418 (400 μg/ml). Clones were screened for expression using the whole-cell voltage-clamp technique.
HEK cells stably transfected with hSCN9A were maintained in DMEM medium supplemented with 10% heat-inactivated fetal bovine serum and 400 μg/ml G-418 in an incubator at 37° C. with a humidified atmosphere of 10% CO2. For HTS, cells were harvested from flasks by trypsinization and replated in an appropriate multi-well plate (typically 96 or 384 wells/plate) such that confluence would be achieved within 24 hours of plating. For electrophysiological studies, cells were removed from the culture flask by brief trypsinization and re-plated at low density onto glass cover slips. Cells were typically used for electrophysiological experiments within 24 to 72 hours after plating.
Cover slips containing HEK cells expressing hSCN9A were placed in a bath on the stage of an inverted microscope and perfused (approximately 1 ml/minutes) with extracellular solution of the following composition: 138 mM NaCl, 2 mM CaCl2, 5.4 mM KCl, 1 mM MgCl2, 10 mM glucose, and 10 mM HEPES, pH 7.4, with NaOH. […] The osmolarity of the extracellular and intracellular solutions was 300 mOsm/kg and 295 mOsm/kg, respectively. All recordings were made at room temperature (22-24° C.) using AXOPATCH 200B amplifiers and PCLAMP software (Axon Instruments, Burlingame, Calif.).
hSCN9A currents in HEK cells were measured using the whole-cell configuration of the patch-clamp technique (Hamill et al., 1981). Uncompensated series resistance was typically 2 to 5 mega ohms and >85% series resistance compensation was routinely achieved. […] Current records were acquired at 20 to 50 KHz and filtered at 5 to 10 KHz.
HEK cells stably transfected with hSCN9A were viewed under Hoffman contrast optics and placed in front of an array of flow pipes emitting either control or compound-containing extracellular solutions. All compounds were dissolved in dimethyl sulfoxide to make 10 mM stock solutions, which were then diluted into extracellular solution to attain the final concentrations desired. […] The voltage-dependence of inactivation was determined by applying a series of depolarizing prepulses (8 sec long in 10 mV increments) from a negative holding potential. The voltage was then immediately stepped to 0 mV to assess the magnitude of the sodium current. Currents elicited at 0 mV were plotted as a function of prepulse potential to allow estimation of the voltage at which 50% of the channels were inactivated (midpoint of inactivation or V1/2). Compounds were tested for their ability to inhibit hSCN9A sodium channels by activating the channel with a 20 msec voltage step to 0 mV following an 8 second conditioning prepulse to the empirically determined V1/2. Compound effect (% inhibition) was determined by difference in current amplitude before and after application of test compounds. […] Inhibition values <20% and >80% were excluded from the calculation.
Electrophysiological assays were conducted with PatchXpress 7000 hardware and associated software (Molecular Devices Corp). All assay buffers and solutions were identical to those used in conventional whole-cell voltage clamp experiments described above. hSCN9A cells were grown as above to 50%-80% confluency and harvested by trypsinization. Trypsinized cells were washed and resuspended in extracellular buffer at a concentration of 1×10^6 cells/ml. The onboard liquid handling facility of the PatchXpress was used for dispensing cells and application of test compounds.

T1 sequence (Q15858 whole entry): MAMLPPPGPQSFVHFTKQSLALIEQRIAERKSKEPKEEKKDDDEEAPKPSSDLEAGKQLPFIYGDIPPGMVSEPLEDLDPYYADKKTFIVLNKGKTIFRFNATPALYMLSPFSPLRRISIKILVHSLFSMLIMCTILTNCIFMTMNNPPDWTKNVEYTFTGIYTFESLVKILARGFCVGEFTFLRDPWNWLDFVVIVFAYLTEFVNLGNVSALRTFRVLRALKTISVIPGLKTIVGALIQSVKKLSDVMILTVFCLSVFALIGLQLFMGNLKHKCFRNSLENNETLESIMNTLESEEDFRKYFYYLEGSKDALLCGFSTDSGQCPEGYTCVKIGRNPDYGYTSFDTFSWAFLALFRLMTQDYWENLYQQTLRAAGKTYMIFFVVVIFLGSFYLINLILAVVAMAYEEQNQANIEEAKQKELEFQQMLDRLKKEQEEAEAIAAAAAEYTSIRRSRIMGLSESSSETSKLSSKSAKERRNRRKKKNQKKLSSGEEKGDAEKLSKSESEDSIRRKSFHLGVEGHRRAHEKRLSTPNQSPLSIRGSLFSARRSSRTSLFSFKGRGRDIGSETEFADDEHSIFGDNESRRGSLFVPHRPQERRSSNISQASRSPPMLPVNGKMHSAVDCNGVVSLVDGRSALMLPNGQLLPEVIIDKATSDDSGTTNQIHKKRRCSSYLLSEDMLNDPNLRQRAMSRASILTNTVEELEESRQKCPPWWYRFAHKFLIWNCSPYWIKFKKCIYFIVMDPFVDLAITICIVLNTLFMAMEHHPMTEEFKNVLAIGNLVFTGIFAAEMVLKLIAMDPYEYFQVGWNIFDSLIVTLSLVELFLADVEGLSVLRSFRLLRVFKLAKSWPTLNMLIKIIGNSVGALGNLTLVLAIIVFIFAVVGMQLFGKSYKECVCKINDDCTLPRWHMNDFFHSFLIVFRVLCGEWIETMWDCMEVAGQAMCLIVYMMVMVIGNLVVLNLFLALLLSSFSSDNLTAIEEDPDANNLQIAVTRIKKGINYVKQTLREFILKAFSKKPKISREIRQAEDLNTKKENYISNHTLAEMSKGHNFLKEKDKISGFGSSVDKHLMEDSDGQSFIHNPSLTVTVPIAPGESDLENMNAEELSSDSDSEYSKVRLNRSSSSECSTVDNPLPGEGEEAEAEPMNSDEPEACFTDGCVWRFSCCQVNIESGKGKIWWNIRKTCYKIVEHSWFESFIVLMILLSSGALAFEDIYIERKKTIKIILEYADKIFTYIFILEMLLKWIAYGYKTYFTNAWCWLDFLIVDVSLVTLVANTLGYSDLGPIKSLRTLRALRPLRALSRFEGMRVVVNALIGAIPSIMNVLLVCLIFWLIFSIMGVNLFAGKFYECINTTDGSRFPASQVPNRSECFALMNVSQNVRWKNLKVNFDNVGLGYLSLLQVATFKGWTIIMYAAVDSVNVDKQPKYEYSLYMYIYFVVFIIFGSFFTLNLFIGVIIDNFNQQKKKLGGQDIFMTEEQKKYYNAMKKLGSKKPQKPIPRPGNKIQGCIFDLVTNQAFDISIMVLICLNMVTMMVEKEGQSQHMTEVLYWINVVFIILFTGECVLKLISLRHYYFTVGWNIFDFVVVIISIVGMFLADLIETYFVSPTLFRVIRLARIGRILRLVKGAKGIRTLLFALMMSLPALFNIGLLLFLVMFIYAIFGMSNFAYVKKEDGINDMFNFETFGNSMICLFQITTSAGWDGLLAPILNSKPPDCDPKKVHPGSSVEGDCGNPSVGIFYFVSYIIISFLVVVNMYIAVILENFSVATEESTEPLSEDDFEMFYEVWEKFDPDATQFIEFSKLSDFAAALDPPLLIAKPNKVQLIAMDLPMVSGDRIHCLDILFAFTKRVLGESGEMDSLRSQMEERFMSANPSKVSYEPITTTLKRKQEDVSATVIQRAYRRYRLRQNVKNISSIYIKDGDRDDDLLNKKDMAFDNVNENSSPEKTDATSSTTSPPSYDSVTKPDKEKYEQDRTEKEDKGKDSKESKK

IC50 [nM]	SMILES
64	CS(=O)(=O)NC(=O)c1cc(F)c(COc2ccc(C(F)(F)F)c(Cl)c2)cc1F [Example 2, 4-{[3-Chloro-4-(trifluoromethyl)phenoxy]methyl}-2,5-difluoro-N-(methylsulfonyl)benzamide]
290	CS(=O)(=O)NC(=O)c1ccc(OCc2ccc(Cl)c(Cl)c2)cc1 [Example 3]
1200	Cn1nc(C(F)(F)F)cc1-c1ccc(OCc2ccc(C(=O)NS(C)(=O)=O)cc2)cc1 [Example 4, N-(Methylsulfonyl)-4-({4-[1-methyl-3-(trifluoromethyl)-1H-pyrazol-5-yl]phenoxy}methyl)benzamide diethylamine salt]
1700	CS(=O)(=O)NC(=O)c1ccc(OCc2cccc3ccccc23)c(C#N)c1 [Example 5, 3-Cyano-N-(methylsulfonyl)-4-(1-naphthylmethoxy)benzamide]
1300	CS(=O)(=O)NC(=O)c1ccc(OCc2ccccc2OC(F)(F)F)c(Cl)c1 [Example 6, 3-Chloro-N-(methylsulfonyl)-4-{[2-(trifluoromethoxy)benzyl]oxy}benzamide]
6900	COc1cccc(OCc2ccc(C(=O)NS(C)(=O)=O)cc2)c1 [Example 8, 4-[(3-Methoxyphenoxy)methyl]-Nethylsulfonyl)benzamide diethylamine salt]
670	CS(=O)(=O)NC(=O)c1cc(F)c(OCc2ccc(Cl)c(Cl)c2)cc1F [Example 9, 4-[(3,4-Dichlorobenzyl)oxy]-2,5-difluoro-N-(methylsulfonyl)benzamide]
1500	CS(=O)(=O)NC(=O)c1cc(F)c(OCc2ccc(C(F)(F)F)c(Cl)c2)cc1F [Example 10, 4-(3-Chloro-4-(trifluoromethyl)benzyloxy)-2,5-difluoro-N-(methylsulfonyl)benzamide]
12000	COc1cc(OCc2ccc(Cl)c(Cl)c2)ccc1C(=O)NS(C)(=O)=O [Example 12, 4-[(3,4-Dichlorobenzyl)oxy]-2-methoxy-N-(methylsulfonyl)benzamide]
8100	COc1ccccc1OCc1cc(F)c(C(=O)NS(C)(=O)=O)cc1F [Example 14, 2,5-Difluoro-4-((2-methoxyphenoxy)methyl)-N-(methylsulfonyl)benzamide]
1700	COc1cc(Cl)ccc1OCc1cc(F)c(C(=O)NS(C)(=O)=O)cc1F [Example 15, 4-((4-Chloro-2-methoxyphenoxy)methyl)-2,5-difluoro-N-(methylsulfonyl)benzamide Diethylamine salt]
760	CS(=O)(=O)NC(=O)c1ccc(COc2cccc(Cl)c2)cc1 [Example 16, 4-((3-Chlorophenoxy)methyl)-N-(methylsulfonyl)benzamide Diethylamine salt]
8400	CS(=O)(=O)NC(=O)c1ccc(COc2ccc(C#N)cc2)cc1 [Example 17, 4-((4-Cyanophenoxy)methyl)-N-(methylsulfonyl)benzamide]
930	CS(=O)(=O)NC(=O)c1ccc(COc2ccc(Cl)cc2)cc1 [Example 18, 4-((4-Chlorophenoxy)methyl)-N-(methylsulfonyl)benzamide Diethylamine salt]
58	COc1cc(C(=O)NS(C)(=O)=O)ccc1COc1ccc(Cl)c(Cl)c1 [Example 19, 4-((3,4-Dichlorophenoxy)methyl)-3-methoxy-N-(methylsulfonyl)benzamide]
2400	CS(=O)(=O)NC(=O)c1ccc(OCc2ccccc2)cc1 [Example 20, 4-(Benzyloxy)-N-(methylsulfonyl)benzamide Diethylamine salt]
710	CS(=O)(=O)NC(=O)c1ccc(OCc2cccc(Br)c2)cc1 [Example 21, 4-(3-Bromobenzyloxy)-N-(methylsulfonyl)benzamide]

IC50 [nM]	SMILES
> 3000	Cc1nccn1-c1ccc(COc2ccc(C(=O)NS(C)(=O)=O)cc2)cc1 [Example 22, 4-(4-(2-methyl-1H-imidazol-1-yl)benzyloxy)-N-(methylsulfonyl)benzamide]
380	CCC(C)S(=O)(=O)NC(=O)c1cc(F)c(COc2ccc(Cl)c(Cl)c2)cc1F (stereo not shown) [Example 23, N-(sec-Butylsulfonyl)-4-((3,4-dichlorophenoxy)methyl)-2,5-difluorobenzamide]
780	CS(=O)(=O)NC(=O)c1ccc(COc2ccc(Cl)cc2Cl)cc1 [Example 24, 4-((2,4-Dichlorophenoxy)methyl)-N-(methylsulfonyl)benzamide Diethylamine salt]
720	CCc1ccc(OCc2ccc(C(=O)NS(C)(=O)=O)cc2)cc1 [Example 25, 4-((4-Ethylphenoxy)methyl)-N-(methylsulfonyl)benzamide Diethylamine salt]
78	CS(=O)(=O)NC(=O)c1ccc(COc2ccc(C(F)(F)F)cc2-c2ccnnc2)cc1 [Example 26, N-(methylsulfonyl)-4-{[2-pyridazin-4-yl-4-(trifluoromethyl)phenoxy]methyl}benzamide]
380	CS(=O)(=O)NC(=O)c1ccc(COc2ccc(Cl)c(C(F)(F)F)c2)cc1 [Example 27, 4-{[4-Chloro-3-(trifluoromethyl)phenoxy]methyl}-N-(methylsulfonyl)benzamide]
58	CS(=O)(=O)NC(=O)c1ccc(COc2ccc(Cl)c(Cl)c2)cc1 [Example 28, 4-[(3,4-Dichlorophenoxy)methyl]-N-(methylsulfonyl)benzamide]
86	CS(=O)(=O)NC(=O)c1ccc(COc2ccc(Cl)c(Cl)c2)c(Cl)c1 [Example 29, 3-Chloro-4-((3,4-dichlorophenoxy)methyl)-N-(methylsulfonyl)benzamide Diethylamine salt]
1900	COc1cc(COc2ccc(Cl)c(Cl)c2)ccc1C(=O)NS(C)(=O)=O [Example 30, 4-[(3,4-Dichlorophenoxy)methyl]-2-methoxy-N-(methylsulfonyl)benzamide]
8500	COc1ccccc1OCc1ccc(C(=O)NS(C)(=O)=O)cc1 [Example 34, 4-[(2-Methoxyphenoxy)methyl]-N-(methylsulfonyl)benzamide]
> 3000	CS(=O)(=O)NC(=O)c1ccc(COc2cccc(C3CCNCC3)c2)cc1 [Example 35, N-(Methylsulfonyl)-4-[(3-piperidin-4-ylphenoxy)methyl]benzamide]
> 3000	CS(=O)(=O)NC(=O)c1ccc(COc2ccc(C3CCNCC3)cc2)cc1 [Example 36, N-(methylsulfonyl)-4-[(4-piperidin-4-ylphenoxy)methyl]benzamide diethylamine salt]
> 3000	Cn1nccc1-c1ccc(OCc2ccc(C(=O)NS(C)(=O)=O)cc2)cc1 [Example 37, 4-{[4-(1-Methyl-1H-pyrazol-5-yl)phenoxy]methyl}-N-(methylsulfonyl)benzamide diethylamine salt]
> 3000	Cn1nccc1-c1cc(Cl)ccc1OCc1ccc(C(=O)NS(C)(=O)=O)cc1 [Example 38, 4-{[4-Chloro-2-(1-methyl-1H-pyrazol-5-yl)phenoxy]methyl}-N-(methylsulfonyl)benzamide diethylamine salt]
560	CCc1ccc(OCc2ccc(C(=O)NS(C)(=O)=O)c(F)c2)cc1 [Example 40, 4-[(4-Ethylphenoxy)methyl]-2-fluoro-N-(methylsulfonyl)benzamide diethylamine salt]
3700	CCc1ccc(OCc2ccc(C(=O)NS(C)(=O)=O)c(OC)c2)cc1 [Example 41, 4-[(4-Ethylphenoxy)methyl]-2-methoxy-N-(methylsulfonyl)benzamide diethylamine salt]

SMILES	IC50 [nM]
CS(=O)(=O)NC(=O)c1cc(Cl)c(COc2ccc(Cl)c(Cl)c2)cc1F [Example 1, 5-Chloro-4-[(3,4-dichlorophenoxy)methyl]-2-fluoro-N-(methylsulfonyl)benzamide]	9.5
